Assay results taken from patent US8710097B2, “Flavonoid dimers and methods of making and using such” (The Hong Kong Polytechnic University, priority 2006, dated 2014).
≈ marks a conversion by molar mass, not a printed value. Like-named read-outs stand apart in the source and are kept apart here.

Assays:
leukemic K562/R7 cells = settings: literature; cited from earlier work
MDA435/LCC6 MDR cells [1] = assay: cells; settings: MDA435/LCC6 MDR; for doxorubicin resistance reversal: monomers; for reversing effect on taxol resistance: monomers at 10 μM
Experimental: (§1) MDA435/LCC6 and P388 (both parent and MDR subtype) were maintained in DMEM and RPMI 1640 culture medium supplemented with 10% FBS, respectively. RPMI 1640 media also contained 100 units/ml penicillin and 100 μg/ml streptomycin. Cells were cultured at 37° C. in a humidified atmosphere with 5% CO2. A solution of 0.05% trypsin-EDTA was used to detach the MDA435/LCC6 (both wild type and MDR subtype) cells.
(§2) Cell proliferation assay. MDA435/LCC6 and P388 (both parent and MDR subtype) cells were seeded at 2000 and 5000 cells per well, respectively, in 96-well plates. Varying concentrations of anticancer drugs (Doxorubicin, Daunorubicin, Vincristine, Vinblastine, taxol, Mitoxantrone) with or without the flavonoid dimers were added in a final volume of 200 μl and cells were grown for 4 and 3 days for MDA435/LCC6 and P388 (both parent and MDR subtype) cells, respectively. For MDA435/LCC6 (both parent and MDR subtype), the corresponding drugs were added after cell attachment (24 hr incubation). To measure cell proliferation, the cell Titer 960 Aqueous Assay (Promega) was used according to the manufacturer's instructions. Briefly, MTS (2 mg/ml) and PMS (0.92 mg/ml) were mixed in a ratio of 20:1. 30 μl MTS/PMS mixture was added into each well and incubated for 2 hours at 37° C. Optical absorbance at 490 nm was then recorded using an ELISA microtiter plate reader (Bio-Rad). Each experiment was done at least in triplicate and repeated twice. Cytotoxicity of the anticancer drugs was expressed as the fraction of the cells survived relative to the untreated DMSO (0.05%) solvent controls.
MDA435/LCC6 is an estrogen-independent human breast cancer cell line. Its MDR subtype (MDA435/LCC6 MDR) was generated by transducing a retroviral vector directing the constitutive expression of the human MDR1 cDNA, producing a cell line with a classical MDR1 resistance pattern (MDA435/LCC6 and MDA435/LCC6MDR1: ascites models of human breast cancer. Br J Cancer 1996, 73, 154-161). The ability of the apigenin dimers of this invention to reverse taxol resistance in MDA435/LCC6 MDR cells were tested. […] Apigenin monomers 10a and 10b at 10 μM were used as the negative controls.

MDA435/LCC6 MDR cells [2] = assay: Doxorubicin accumulation; assay type: cell-based, human; settings: LCC6 MDR; apigenin dimers 10 μM; 20 μM doxorubicin, 2 h
Experimental: Doxorubicin accumulation. 2.5 ml (10^5 cells/ml) MDA435/LCC6 (both parent and MDR subtype) cells were seeded in each well of 6-well plates. At confluence, culture medium was removed. 2 ml of fresh DMEM with modulators was added and cells were incubated for 30 min at 37° C. Doxorubicin (final concentration of 20 μM) was then added and incubated for 2 h at 37° C. The cells were then harvested by trypsinization.
(§3) For P388 (both parent and MDR subtype) cells, 1 ml (10^5 cells) confluent cells were aliquot into Eppendorf tube and pre-incubated with flavone dimers for 30 min at 37° C. Doxorubicin (final concentration of 10 μM) was then added and incubated for 2 h at 37° C. at a final concentration of 10 μM. The cell pellets were washed 3 times with cold PBS by using an Eppendorf micro-centrifuge and lysed with 0.3N HCL in 50% ethanol, and sonicated for 30s. After centrifugation at 10000 rpm/min for 3 min, the supernatant was saved. The fluorescence of doxorubicin was measured using a spectrofluorometer (λexcite=470 nm, λemit=585 nm).
In order to understand whether the modulating activity for various anticancer drugs by different dimers is due to their different ability to modulate P-gp mediated drug efflux, their effects on the accumulation of doxorubicin in both MDA435/LCC6 sensitive and resistant cells were investigated. Doxorubicin was a fluorescent drug substrate of P-gp and was used in this experiment to monitor the P-gp mediated drug efflux. Accumulation of doxorubicin in these cells was determined in the presence or absence of apigenin dimers (10 μM) and monomer (20 μM). Verapamil was used as a positive control.

P388/ADR cells [3] = assay: Doxorubicin accumulation; assay type: cell-based, murine; settings: monomer 10b at double concentration of the dimers, FIG. 11A
Experimental: as §3

[4] = system: LeMDR1 overexpressed L. enriettii (LeV160); assay: Leishmania cell viability (MTS) assay; assay type: cell-based, Leishmania enriettii
Source text: (§4) Cell lines and Cell Culture.

[5] = system: LeMDR1 knockout (LeMDR1 −/−) L. enriettii; assay: Leishmania cell viability (MTS) assay; assay type: cell-based, Leishmania enriettii
Source text: as §4

[6] = system: SSG-resistant L. donovani Ld39 promastigotes; assay: microbe, parasite or virus in culture; assay type: cell-based, Leishmania donovani; settings: for IC50: read-out: IC50(μM) of synthetic flavonoid, Ld39; for SSG resistance modulating activity: 12 μM, FIG. 14B
Experimental: (§5) Cell lines and Cell Culture. Promastigotes of Leishmania enriettii (LePentR50, Le wild type, LeMDR1 −/− and LeMDR1-overexpressed LeV160 mutants) and Leishmania donovani (LdAG83, Ld2001 and Ld39) were employed in this study. The former is a natural infective strain of guinea pig and the latter is a clinical strain, which may cause visceral leishmaniasis in human. Both strains were cultured in Schneider's Drosophila Medium (Invitrogen), pH 6.9 supplemented with 10% (v/v) heat inactivated fetal calf serum (Hyclone) with 4 mM glutamine (Sigma) and 25 μg/mL gentamicin solution (Invitrogen), at 27° C. for 4 days (Cloning and functional analysis of an extrachromosomally amplified multidrug resistance-like gene in Leishmania enriettii. Mol. Biochem. Parasitol 1993, 60, 195-208). […]
(§6) The viability of promastigotes was determined by the Cell Titer 96® Aqueous Assay (Promega) that employs a tetrazolium compound (MTS) and electron coupling reagent, phenazine methosulfate (PMS). Promastigotes were seeded into 96-well flat bottom microtiter plate at 1×10^5 cells per well in a final volume of 100 μL medium. To determine the cytotoxic effects of flavonoid dimers to the parasites, various concentrations of flavonoid dimers were added to the promastigotes. To determine the reversal effects of flavonoid dimers with different spacer lengths, various concentrations of antileishmanial drugs, one of pentamidine or SSG, vinblastine and puromycin was added to the wells with or without flavonoid dimers. The parasites were incubated at 27° C. for 72 hrs. Each concentration of antileishmanials with or without the flavonoid dimers was tested in triplicates in each experiment. A 2 mg/mL MTS and 0.92 mg/mL PMS were mixed at a ratio of 20:1 (MTS: PMS). After 72-hr incubation, 10 μL of MTS:PMS mixture was added into each well of microtiter plate. The plate was then incubated at 27° C. for 4 hrs for color development. After 4 hrs of incubation, the OD values were determined at 490 nm using automatic microtiter plate reader (Bio-Rad).

[7] = system: pentamidine-resistant L. enriettii LePentR50 promastigotes; assay: microbe, parasite or virus in culture
Experimental: (§7) Cell lines and Cell Culture. Promastigotes of Leishmania enriettii (LePentR50, Le wild type, LeMDR1 −/− and LeMDR1-overexpressed LeV160 mutants) and Leishmania donovani (LdAG83, Ld2001 and Ld39) were employed in this study. The former is a natural infective strain of guinea pig and the latter is a clinical strain, which may cause visceral leishmaniasis in human. Both strains were cultured in Schneider's Drosophila Medium (Invitrogen), pH 6.9 supplemented with 10% (v/v) heat inactivated fetal calf serum (Hyclone) with 4 mM glutamine (Sigma) and 25 μg/mL gentamicin solution (Invitrogen), at 27° C. for 4 days (Cloning and functional analysis of an extrachromosomally amplified multidrug resistance-like gene in Leishmania enriettii. Mol. Biochem. Parasitol 1993, 60, 195-208).
(§8) Promastigotes of LeV160 were culture in the presence of 160 μg/mL vinblastine. No pentamidine and vinblastine (Sigma) was added to the Le wild type and LeMDR1 −/− mutant.
as §6

[8] = system: wild type L. donovani LdAG83 promastigotes; assay: Leishmania cell viability (MTS) assay; assay type: cell-based, Leishmania donovani; settings: for IC50: read-out: IC50(μM) of synthetic flavonoid, LdAG83
Experimental: as §5, §6

[9] = system: tested MDR cell lines (drug resistant breast cancer and leukemia cells); assay type: cell-based; settings: tested MDR cell lines; 10 μM
Source text: Cell proliferation assay.

P388/ADR cells [10] = assay: cells
Experimental: as §1, §2

[11] = molecular target: NBD2 cytosolic domain of mouse P-gp (Mus musculus, UniProt P06795); settings: reported in literature; cited from earlier work
[12] = system: wild type L. enriettii (Le); assay: Leishmania cell viability (MTS) assay; assay type: cell-based, Leishmania enriettii
Experimental: as §7, §8
as §6, with “After 72-hr incubation, 10 μL of MTS:PMS mixture was added into each well of microtiter plate. The plate was then incubated at 27° C. for 4 hrs for color development.” left out

[13] = Leishmania enriettii, 72 h, read-out: IC50(μM) of synthetic flavonoid, LePentR50, cytotoxicity of compound alone, 72 hrs
[14] = cytotoxicity of compound alone, 72 hrs
[15] = Leishmania enriettii, read-out: IC50 of pentamidine (μg/ml), no modulator

Sequence of NBD2 cytosolic domain of mouse P-gp (P06795 1033-1271 limits assumed): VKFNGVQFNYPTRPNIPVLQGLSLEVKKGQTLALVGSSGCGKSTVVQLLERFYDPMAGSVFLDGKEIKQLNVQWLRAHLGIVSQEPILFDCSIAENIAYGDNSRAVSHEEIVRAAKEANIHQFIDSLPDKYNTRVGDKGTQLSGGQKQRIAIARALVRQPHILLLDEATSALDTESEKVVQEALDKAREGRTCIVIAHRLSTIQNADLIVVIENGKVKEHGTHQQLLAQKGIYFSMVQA

CC(C)=CCc1c(O)cc2oc(-c3ccccc3)cc(=O)c2c1O [6-Prenylchrysin]
inhibition of P-gp mediated drug efflux (leukemic K562/R7 cells): inhibited P-gp mediated drug efflux

CC(C)=CCc1c(O)cc(O)c2c(=O)cc(-c3ccccc3)oc12 [8-Prenylchrysin]
inhibition of P-gp mediated drug efflux (leukemic K562/R7 cells): inhibited P-gp mediated drug efflux

O=c1cc(-c2ccc(OCCOCCOCCOc3ccc(-c4cc(=O)c5c(O)cc(O)cc5o4)cc3)cc2)oc2cc(O)cc(O)c12 [Compound 9c, 1,10-Bis[4′-((5,7-dihydroxy)-4H-chromen-4-on-2-yl)phenyl]-1,4,7,10-tetraoxadecane]
IC60 of doxorubicin with modulator (MDA435/LCC6 MDR cells [1]; 5 μM dimer, FIG. 5): 1.3 µM | reduction of IC60 of doxorubicin, RF (MDA435/LCC6 MDR cells [1]; 5 μM dimer, FIG. 5): about 3.6 RF | enhancement of doxorubicin accumulation, folds of control (MDA435/LCC6 MDR cells [2]): 4.5 folds | activity on doxorubicin accumulation (P388/ADR cells [3]): comparable activity to 9d | decrease of IC50 of pentamidine ([4]; LeV160): about 1.8 fold | pentamidine sensitization ([5]; LeMDR1 −/−): 3.8 fold | reduction of SSG resistance level ([6]; Ld39, 4 μM, FIGS. 17A and 17B): back to the level of the sensitive strain | SSG sensitization ([6]; Ld39, FIG. 18B): 3.1 fold | IC50 ([6]; Leishmania donovani, 72 h): 11 ± 0.7 µM | pentamidine sensitization ([7]; LePentR50, FIG. 18A): about 2.7 fold | IC50 [7, 13]: > 200 µM | IC50 ([8]; Leishmania donovani, 72 h): 8 ± 0.3 µM | modulatory effect on SSG sensitivity ([8]; SSG-sensitive wild type LdAG83, FIG. 14D): no modulatory effect

O=c1cc(-c2ccc(OCCOCCOCCO)cc2)oc2cc(O)cc(O)c12 [Compound 10a, 9-[4′-((5,7-dihydroxy)-4H-chromen-4-on-2-yl)phenyl]-3,6,9,-trioxanonan-1-ol]
doxorubicin resistance reversal (MDA435/LCC6 MDR cells [1]): ineffective reversers | reversing effect on taxol resistance (MDA435/LCC6 MDR cells [1]): little reversing effect | anticancer activity of monomers alone [9]: no anticancer activity | modulatory activity on doxorubicin and daunorubicin cytotoxicity (P388/ADR cells [10]): little modulatory activity | SSG resistance modulating activity ([6]; Ld39): did not give any significant modulating activity | IC50 [6, 14]: > 200 µM | IC50 ([7]; read-out: IC50(μM) of synthetic flavonoid, LePentR50, cytotoxicity of compound alone, 72 hrs): > 200 µM | IC50 [8, 14]: > 200 µM

O=c1cc(-c2ccc(OCCOCCOCCOCCO)cc2)oc2cc(O)cc(O)c12 [Compound 10b, 12-[4′-((5,7-dihydroxy)-4H-chromen-4-on-2-yl)phenyl]-3,6,9,12-tetraoxadodecan-1-ol]
doxorubicin resistance reversal (MDA435/LCC6 MDR cells [1]): ineffective reversers | reversing effect on taxol resistance (MDA435/LCC6 MDR cells [1]): little reversing effect | anticancer activity of monomers alone [9]: no anticancer activity | activity on doxorubicin accumulation (P388/ADR cells [3]): little or no activity at all | modulatory activity on doxorubicin and daunorubicin cytotoxicity (P388/ADR cells [10]): little modulatory activity | SSG resistance modulating activity ([6]; Ld39): did not give any significant modulating activity | IC50 ([6]; Leishmania donovani, 72 h): > 200 µM | IC50 [7, 13]: > 200 µM | IC50 ([8]; Leishmania donovani, 72 h): > 200 µM

O=c1c(O)c(-c2ccc(O)cc2)oc2cc(O)cc(O)c12 [kaempferol]
binding to NBD2 cytosolic domain of mouse P-gp [11]: bind directly

N=C(N)c1ccc(OCCCCCOc2ccc(C(=N)N)cc2)cc1 [pentamidine, reference compound]
IC50 of pentamidine (μg/ml), no modulator ([12]; Le wild type): 12.0 ± 0.8 µg/mL | IC50 ([12]; Leishmania enriettii, read-out: IC50 of pentamidine (μg/ml), no modulator, Le wild type): ~8.7 µg/mL (≈ 25.6 µM) | IC50 [4, 15]: 9 ± 0.1 µg/mL (≈ 26.4 µM) | IC50 [5, 15]: 18.9 ± 0.8 µg/mL (≈ 55.5 µM) | survival of LePentR50 ([7]; 60 μg/ml pentamidine alone): 94.0±2.3 % of untreated | IC50 ([7]; Leishmania enriettii, read-out: IC50 of pentamidine alone, LePentR50, no modulator (DMSO)): 117 µg/mL

O=c1c(O)c(-c2ccc(O)c(O)c2)oc2cc(O)cc(O)c12 [quecetin]
binding to NBD2 cytosolic domain of mouse P-gp [11]: bind directly

dehydrosilybin
binding to NBD2 cytosolic domain of mouse P-gp [11]: bind directly
